Data set [1] in a line: Plasma half-life was determined in Sprague-Dawley rats after 0-8 h administration of the compound. It counts as ADME, organism-based. Conditions: rat.
The nature of data set [2]: Inhibition of VLA-4 binding to radiolabeled vascular cell adhesion molecule-1 (VCAM-1) Ig fusion protein in human Jurkat cells. It counts as cell-based.
A short description of data set [3]: Plasma clearance rate in Sprague-Dawley rats. Conditions: rat, read-out: Clp. In kind it is ADME, organism-based.
Data set [4] can be described thus: Bioavailability in rat (Sprague-Dawley) (dose 1 mg/kg i.v. and 2 mg/kg p.o.). The conditions noted are these: in vivo, po. It counts as ADME, organism-based.
The next data set deals with T1, Integrin alpha-4/beta-7 (Homo sapiens, UniProt P13612+P26010).
T1 sequence (P13612 whole entry): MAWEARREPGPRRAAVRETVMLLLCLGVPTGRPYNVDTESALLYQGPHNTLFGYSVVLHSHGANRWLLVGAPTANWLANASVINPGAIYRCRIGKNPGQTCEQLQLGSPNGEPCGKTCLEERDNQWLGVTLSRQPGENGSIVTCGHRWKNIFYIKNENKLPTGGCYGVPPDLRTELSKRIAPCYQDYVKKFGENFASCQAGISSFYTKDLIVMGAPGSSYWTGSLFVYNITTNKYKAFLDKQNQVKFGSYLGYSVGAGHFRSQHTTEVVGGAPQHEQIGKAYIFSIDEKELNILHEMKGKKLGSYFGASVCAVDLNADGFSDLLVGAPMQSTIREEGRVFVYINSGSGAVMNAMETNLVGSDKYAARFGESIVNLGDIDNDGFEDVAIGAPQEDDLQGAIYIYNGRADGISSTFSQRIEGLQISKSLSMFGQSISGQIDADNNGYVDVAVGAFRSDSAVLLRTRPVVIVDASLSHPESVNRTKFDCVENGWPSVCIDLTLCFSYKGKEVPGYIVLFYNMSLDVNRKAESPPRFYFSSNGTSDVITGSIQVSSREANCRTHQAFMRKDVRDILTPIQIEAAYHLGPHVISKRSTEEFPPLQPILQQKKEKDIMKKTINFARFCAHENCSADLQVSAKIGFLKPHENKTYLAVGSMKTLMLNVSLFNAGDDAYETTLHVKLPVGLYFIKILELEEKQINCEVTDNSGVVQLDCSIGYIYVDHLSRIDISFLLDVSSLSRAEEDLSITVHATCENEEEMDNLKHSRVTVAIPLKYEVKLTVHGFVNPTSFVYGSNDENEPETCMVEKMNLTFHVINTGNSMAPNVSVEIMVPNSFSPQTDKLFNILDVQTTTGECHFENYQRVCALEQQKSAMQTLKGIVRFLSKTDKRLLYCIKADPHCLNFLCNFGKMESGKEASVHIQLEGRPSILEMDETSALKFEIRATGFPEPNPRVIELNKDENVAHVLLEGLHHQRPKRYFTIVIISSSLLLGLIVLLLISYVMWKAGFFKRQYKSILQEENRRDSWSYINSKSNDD
T1 sequence (P26010 whole entry): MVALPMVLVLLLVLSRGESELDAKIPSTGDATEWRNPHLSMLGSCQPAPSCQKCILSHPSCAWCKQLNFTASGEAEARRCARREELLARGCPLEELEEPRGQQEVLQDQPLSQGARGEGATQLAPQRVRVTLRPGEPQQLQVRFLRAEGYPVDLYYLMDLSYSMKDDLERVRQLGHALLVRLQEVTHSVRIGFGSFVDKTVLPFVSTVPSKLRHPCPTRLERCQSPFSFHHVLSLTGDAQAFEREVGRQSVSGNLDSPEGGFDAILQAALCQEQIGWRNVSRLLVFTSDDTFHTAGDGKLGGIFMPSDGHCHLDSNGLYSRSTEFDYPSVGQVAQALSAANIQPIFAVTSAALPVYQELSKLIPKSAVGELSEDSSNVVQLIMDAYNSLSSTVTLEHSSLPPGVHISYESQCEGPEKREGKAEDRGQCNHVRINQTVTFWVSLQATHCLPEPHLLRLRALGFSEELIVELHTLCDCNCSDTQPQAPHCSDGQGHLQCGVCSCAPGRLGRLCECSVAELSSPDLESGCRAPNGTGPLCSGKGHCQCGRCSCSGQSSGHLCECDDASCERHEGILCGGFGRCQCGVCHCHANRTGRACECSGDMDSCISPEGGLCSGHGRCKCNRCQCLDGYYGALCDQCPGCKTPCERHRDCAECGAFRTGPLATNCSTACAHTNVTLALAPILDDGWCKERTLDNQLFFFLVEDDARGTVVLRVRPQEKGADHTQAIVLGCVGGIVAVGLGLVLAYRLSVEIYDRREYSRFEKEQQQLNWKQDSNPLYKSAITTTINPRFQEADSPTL
The data set is described as follows: Inhibition of alpha4-beta7 integrin binding to radiolabeled vascular cell adhesion molecule-1 (VCAM-1) Ig fusion protein in human Jurkat cells. In kind it is cell-based.

For orientation: half-life means the time needed for the level to fall by half in the phase considered. Read a low half-life as rapid decline. By IC50 is commonly meant the point on the concentration scale where inhibition reaches its midpoint. Read a high IC50 as lower potency. A word on the bioavailability: it is dose-corrected exposure relative to a reference, in per cent. The low end stands for little systemic uptake, the high end for much systemic uptake. Take `COc1ccccc1-c1ccc(C[C@H](NC(=O)C2(c3cnccc3C)CCCC2)C(=O)O)cc1`: in data set [1], the half-life is 0.2 h. Further, the 50% inhibitory concentration (IC50) in data set [2] came out at 1.2 nM; at Integrin alpha-4/beta-7, 22 nM. Besides, in data set [3], the clearance is > 100 mL/min/kg. This compound returned a bioavailability in data set [4] of 1%.
For `COc1ccccc1-c1ccc(C[C@H](NC(=O)C2(c3ccccc3)CCCC2)C(=O)O)cc1`, the half-life in data set [1] was 1 h. The IC50 was determined as 3.2 nM in data set [2] and 110 nM at Integrin alpha-4/beta-7. In data set [3], the clearance is 21.5 mL/min/kg. In data set [4], this compound returned a bioavailability of 55%.
In the same order, the values of `COc1ccccc1-c1ccc(C[C@H](NC(=O)C2(c3ccncc3)CCCC2)C(=O)O)cc1` are 2.5 h, 0.7 nM, 49 nM, > 100 mL/min/kg and 17%.

Values taken from ChEMBL document CHEMBL1135845, “N-(arylacetyl)-biphenylalanines as potent VLA-4 antagonists” (Bioorg Med Chem Lett, 2002).
